Test results reported in patent US20090291945A1, “CYSTEINE PROTEASE INHIBITORS” (Teijin Pharma Limited, priority 2008, published 2009).

Target: T1, cathepsin K (Homo sapiens, UniProt P43235)
T1 construct: the active enzyme was obtained as the enzyme fraction by using detergent containing lysis buffer; made in house; host or cells: HEK293T (GenHunter Corporation), transient expression; detergent lysate used as enzyme fraction
T1 sequence (P43235 115-329): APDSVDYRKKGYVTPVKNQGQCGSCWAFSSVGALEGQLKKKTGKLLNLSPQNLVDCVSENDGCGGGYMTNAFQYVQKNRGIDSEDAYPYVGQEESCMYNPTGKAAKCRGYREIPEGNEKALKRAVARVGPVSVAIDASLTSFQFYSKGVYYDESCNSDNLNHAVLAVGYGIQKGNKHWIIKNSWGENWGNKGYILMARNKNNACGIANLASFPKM
Experiment: Cathepsin K inhibitory activity (fluorescent substrate Z-Leu-Arg-MCA)
Format: biochemical
Conditions: enzyme expressed in HEK293T; 15 min preincubation, 30 min reaction at room temperature, pH 5.5; read-out: Activity Intensity (cathepsin K inhibitory activity, pIC50 class) (converted)
Protocol: Cathepsin K inhibitory activities of the compounds synthesized according to the methods of the above examples were measured.
Cathepsin K used for evaluation of inhibitory activity was transiently expressed in an animal cell HEK293T (made by GenHunter Corporation) and the active enzyme was obtained as the enzyme fraction by using detergent containing lysis buffer.
The enzyme solution A was prepared at 2.1 times final concentration by diluting the enzyme fraction with assay buffer (50 mM sodium acetate, 50 mM sodium chloride, 2 mM DTT, pH 5.5). The test compound solutions B were prepared at 50 times final target concentrations by dimethylsulfoxide (DMSO). As a substrate solution C, a solution of a fluorescent substrate, benzyloxycarbonyl-L-leucyl-L-arginyl-4-methyl-coumaryl-7-amide (Z-Leu-Arg-MCA (Peptide Institute Inc.), was prepared at 10 μM by an assay buffer.
To the enzyme solution A (38.4 μL) were added the test compound solutions B (1.6 μL) and mixed individually. The mixtures were incubated at room temperature for 15 minutes. To the incubated solutions were added the substrate solution C (40 μL) and the mixtures were reacted at room temperature for 30 minutes respectively. The fluorescence intensities of the enzyme reaction solutions were measured at excitation wavelength of 355 nm and measurement wavelength of 460 nm and the enzyme activities were calculated from these fluorescence intensities caused by 7-amino-4-methylcoumarine released. The enzyme activity with using DMSO instead of the test compound solution B was taken as 100% and the inhibitory rates at each concentration of the test compound were calculated. The […] response curve was fitted to the plots. The 50% inhibitory concentration against cathepsin K was calculated from this curve.
Note that the symbols (+, ++, and +++) in this table represent the inhibitory activity values as below. Here, pIC50 is the value representing a negative logarithm of IC50, (−log10(IC50)). IC50 is a 50% inhibitory concentration.

Row | IC50 | SMILES
1 | 31.6 to 10000 nM | CC[C@H](N[C@@H](CC(C)C)C(=O)N[C@@H](CCS(C)(=O)=O)CNc1ccc(OC)cc1OC)C(F)(F)F [Compound 116]
2 | ≤ 3.16 nM | CC[C@@H](CNc1ccc(N2CCCCC2)cc1)NC(=O)[C@H](CC(C)(C)F)N[C@@H](c1ccc(-c2ccc(S(C)(=O)=O)cc2)cc1)C(F)(F)F [Compound 10, (2S)—N-((1S)-1-{[(4-piperidin-1-ylphenyl)amino]methyl}propyl)-2-[((1S)-2,2,2-trifluoro-1-{4-[4-(methylsulfonyl)phenyl]phenyl}ethyl)amino]-4-fluoro-4-methylpentanamide]
3 | ≤ 3.16 nM | CC(C)C[C@H](N[C@@H](c1ccc(=O)[nH]c1)C(F)(F)F)C(=O)N[C@@H](C)CNc1ccc(N2CCOCC2)cc1 [Compound 72]
4 | ≤ 3.16 nM | COc1ccc(NC[C@H](CC(C)C)NC(=O)[C@H](CC(C)C)N[C@@H](c2ccccc2)C(F)(F)F)c(OC)c1 [Compound 64]
5 | ≤ 3.16 nM | CC[C@@H](CNc1ccc(N2CCSCC2)cc1OC)NC(=O)[C@H](CC(C)(C)F)N[C@@H](c1ccc(Br)cc1)C(F)(F)F [Compound 17]
6 | ≤ 3.16 nM | CC(C)C[C@H](N[C@@H](c1ccccc1)C(F)(F)F)C(=O)N[C@@H](CCCCNC(=O)OCc1ccccc1)CNc1ccc(N2CCOCC2)cc1 [Compound 102]
7 | ≤ 3.16 nM | CC(C)C[C@H](N[C@@H](c1ccccc1)C(F)(F)F)C(=O)N[C@@H](CCC(=O)OCc1ccccc1)CNc1ccc(N2CCOCC2)cc1 [Compound 68]
8 | 3.16 to 31.6 nM | CC[C@@H](CNc1ccc(OCCS(C)(=O)=O)cc1OC)NC(=O)[C@H](CC(C)C)N[C@@H](c1ccc(S(C)(=O)=O)cc1)C(F)(F)F [Compound 40]
9 | ≤ 3.16 nM | CC[C@@H](CNc1ccc(OCCSC)cc1OC)NC(=O)[C@H](CC(C)(C)F)N[C@@H](c1ccc(Br)cc1)C(F)(F)F [Compound 16, (2S)-2-{[(1S)-1-(4-bromophenyl)-2,2,2-trifluoroethyl]amino}-N-[(1S)-1-({[2-methoxy-4-(2-methylthioethoxy)phenyl]amino}methyl)propyl]-4-fluoro-4-methylpentanamide]
10 | 31.6 to 10000 nM | CC[C@@H](CNc1ccc(OCC(F)(F)F)cc1)NC(=O)[C@H](CC(C)C)N[C@@H](c1ccccc1)C(F)(F)F [Compound 90]
11 | ≤ 3.16 nM | CC[C@@H](CNc1ccc(OCC(=O)N(C)OC)cc1OC)NC(=O)[C@H](CC(C)C)N[C@@H](c1ccccc1)C(F)(F)F [Compound 89]
12 | 3.16 to 31.6 nM | COc1ccc(NC[C@H](C)NC(=O)[C@H](CC(C)C)N[C@@H](c2ccc(=O)[nH]c2)C(F)(F)F)c(OC)c1 [Compound 76]
13 | ≤ 3.16 nM | CC(C)C[C@H](N[C@@H](c1cccnc1)C(F)(F)F)C(=O)N[C@@H](C)CNc1ccc(N2CCOCC2)cc1 [Compound 74]
14 | 3.16 to 31.6 nM | CC[C@@H](CNc1ccc(OCCS(C)(=O)=O)cc1OC)NC(=O)[C@H](CC(C)C)N[C@@H](c1cccnc1)C(F)(F)F [Compound 39]
15 | 31.6 to 10000 nM | CC[C@@H](CNc1ccc(N2CCOCC2)cc1)NC(=O)[C@H](Cc1ccccc1)N[C@@H](c1ccccc1)C(F)(F)F [Compound 58]
16 | 31.6 to 10000 nM | CCOC(=O)c1ccnn1-c1ccc(NC[C@H](CC)NC(=O)[C@H](CC(C)C)N[C@@H](c2ccccc2)C(F)(F)F)cc1 [Compound 114]
17 | 31.6 to 10000 nM | CCOC(=O)C(F)(F)Oc1ccc(NC[C@H](CC)NC(=O)[C@H](CC(C)(C)F)N[C@@H](c2ccccc2)C(F)(F)F)c(OC)c1 [Compound 111]
18 | ≤ 3.16 nM | CC[C@@H](CNc1ccc(OCCCCC(=O)O)cc1OC)NC(=O)[C@H](CC(C)C)N[C@@H](c1ccccc1)C(F)(F)F [Compound 156]

Row | IC50 | SMILES
19 | 31.6 to 10000 nM | COc1ccc(NC[C@H](CCS(C)(=O)=O)NC(=O)[C@H](CC(C)C)N[C@@H](c2ccc(OC)nc2)C(F)(F)F)c(OC)c1 [Compound 84]
20 | 3.16 to 31.6 nM | COc1ccc(NC[C@H](CO)NC(=O)[C@H](CC(C)(C)F)N[C@@H](c2ccc(-c3ccc(S(C)(=O)=O)cc3)cc2)C(F)(F)F)cc1 [Compound 3, N-((1R)-2-hydroxy-1-{[(4-methoxyphenyl)amino]methyl}ethyl)(2S)-2-[((1S)-2,2,2-trifluoro-1-{4-[4-(methylsulfonyl)phenyl]phenyl}ethyl)amino]-4-fluoro-4-methylpentanamide]
21 | ≤ 3.16 nM | CC[C@@H](CNc1ccc(N2CCOCC2)cc1)NC(=O)[C@H](CC(C)C)N[C@@H](Cc1ccccc1)C(F)(F)F [Compound 37]
22 | 31.6 to 10000 nM | CC[C@@H](CNc1ccc2c(c1)OCO2)NC(=O)[C@H](CC(C)C)N[C@@H](c1ccc(OC)cc1)C(F)(F)F [Compound 100]
23 | 3.16 to 31.6 nM | COc1ccc(NC[C@H](CCS(C)(=O)=O)NC(=O)[C@H](CC(C)C)N[C@@H](c2cccnc2)C(F)(F)F)c(OC)c1 [Compound 83]
24 | 3.16 to 31.6 nM | CC[C@@H](CNc1ccc(OC)cc1)NC(=O)[C@H](CC(C)(C)F)N[C@@H](c1ccc(-c2ccc(S(C)(=O)=O)cc2)cc1)C(F)(F)F [Compound 1, (2S)—N-((1S)-1-{[(4-methoxyphenyl)amino]methyl}propyl)-2-[((1S)-2,2,2-trifluoro-1-{4-[4-(methylsulfonyl)phenyl]phenyl}ethyl)amino]-4-fluoro-4-methylpentanamide]
25 | ≤ 3.16 nM | COc1ccc([C@H](N[C@@H](CC(C)C)C(=O)N[C@@H](C)CNc2ccc(N3CCOCC3)cc2)C(F)(F)F)cn1 [Compound 75]
26 | 3.16 to 31.6 nM | CC[C@@H](CNc1ccc(N2CCCC2=O)cc1)NC(=O)[C@H](CC(C)C)N[C@@H](c1ccccc1)C(F)(F)F [Compound 53]
27 | ≤ 3.16 nM | CCOc1ccc(NC[C@H](CC)NC(=O)[C@H](CC(C)(C)F)N[C@@H](c2ccc(-c3ccc(S(C)(=O)=O)cc3)cc2)C(F)(F)F)cc1OCC [Compound 4, (2S)—N-((1S)-1-{[(3,4-diethoxyphenyl)amino]methyl}propyl)-2-[((1S)-2,2,2-trifluoro-1-{4-[4-(methylsulfonyl)phenyl]phenyl}ethyl)amino]-4-fluoro-4-methylpentanamide]
28 | ≤ 3.16 nM | CC[C@@H](CNc1ccc(OCC(=O)OCc2ccccc2)cc1OC)NC(=O)[C@H](CC(C)(C)F)N[C@@H](c1ccc(Br)cc1)C(F)(F)F [Compound 20, Phenylmethyl 2-{4-[((2S)-2-{(2S)-2-{[(1S)-2,2,2-trifluoro-1-(4-bromophenyl)ethyl]amino}-4-fluoro-4-methylpentanoylamino}butyl)amino]-3-methoxyphenoxy}acetate]
29 | ≤ 3.16 nM | CCOC(=O)C1(C(C)C)CCN(c2ccc(NC[C@H](CC)NC(=O)[C@H](CC(C)C)N[C@@H](c3ccccc3)C(F)(F)F)cc2)CC1 [Compound 109]
30 | 31.6 to 10000 nM | CC[C@@H](CNc1ccc(N(C)C)cc1)NC(=O)C1(NC(c2ccccc2)C(F)(F)F)CCCCC1 (some centres unmarked) [Compound 14]
31 | 31.6 to 10000 nM | CC[C@@H](CNc1ccc(-n2cccn2)cc1)NC(=O)[C@H](CC(C)C)N[C@@H](c1ccccc1)C(F)(F)F [Compound 47]
32 | 3.16 to 31.6 nM | COc1ccc(NC[C@H](CCSC)NC(=O)[C@H](CC(C)C)N[C@@H](c2ccccc2)C(F)(F)F)c(OC)c1 [Compound 66]
33 | 31.6 to 10000 nM | CC[C@@H](CNc1ccc(OC)cc1OC)NC(=O)C1(N[C@@H](c2ccccc2)C(F)(F)F)CCCC1 [Compound 28]
34 | 3.16 to 31.6 nM | COc1ccc(NC[C@H](C)NC(=O)[C@H](CC(C)C)N[C@@H](c2ccc(OC)nc2)C(F)(F)F)c(OC)c1 [Compound 79]
35 | 3.16 to 31.6 nM | CC[C@@H](CNc1ccc(OCC(=O)O)cc1OC)NC(=O)[C@H](CC(C)C)N[C@@H](c1ccc(=O)[nH]c1)C(F)(F)F [Compound 123]
